Experimental findings from PubChem BioAssay AID328 (DTP/NCI, 2004) are described below.

The experiment concerns BDF1 mice, P388 leukemia ip, median survival T/C. The experiment in a line: NCI In Vivo Anticancer Drug Screen. Data for tumor model P388 Leukemia (intraperitoneal) in B6D2F1 (BDF1) mice. The conditions noted are these: endpoint: median survival time, higher = longer survival. The method in brief: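 In tumour-bearing mice, survival after compound treatment is set against the vehicle group and given as a quotient.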

Where [1] appears, read: dose: 50.0 mg/kg/injection, schedule: Q04DX003 (ip), vehicle: water.
Where [2] appears, read: dose: 100.0 mg/kg/injection, schedule: Q04DX003 (ip), vehicle: water.
[3] abbreviates: dose: 50.0 mg/kg/injection, schedule: Q01DX009 (ip), vehicle: saline with Tween-80.
Setting [4] is: dose: 100.0 mg/kg/injection, schedule: Q01DX009 (ip), vehicle: saline with Tween-80.
[5] abbreviates: dose: 200.0 mg/kg/injection, schedule: Q01DX009 (ip), vehicle: saline with Tween-80.

Each structure is given as a SMILES string. Where “and” joins values, the source holds several entries; their conditions need not be identical. Equal entries are not always repeated. Toxic doses and inconclusive results are not listed.

As to `Cc1c2c(cc3c1[nH]c1ccccc13)C(c1ccc(Cl)cc1)=NCC2`, the T/C (dose: 100.0 mg/kg/injection, schedule: Q01DX009 (ip), vehicle: Klucel (hydroxypropylcellulose) (HPC)) is 86 % of control.

Take `NC(N)=Nc1ccc(C(=O)Oc2ccc(OC(=O)c3cccc(N=C(N)N)c3)cc2)cc1`: the T/C was 96 % of control (dose: 50.0 mg/kg/injection, schedule: Q01DX009 (ip), vehicle: water); 103 % of control under setting [1]; 96 % of control (dose: 100.0 mg/kg/injection, schedule: Q01DX009 (ip), vehicle: water); 94 % of control under setting [2]; 99 % of control (dose: 200.0 mg/kg/injection, schedule: Q01DX009 (ip), vehicle: water); 100 % of control (dose: 200.0 mg/kg/injection, schedule: Q04DX003 (ip), vehicle: water). The T/C reads like this: (dose: 400.0 mg/kg/injection, schedule: Q01DX009 (ip), vehicle: water) 114 % of control; (dose: 400.0 mg/kg/injection, schedule: Q04DX003 (ip), vehicle: water) 105 % of control.

As to `CCOC(=O)C(Cc1ccc(N(CCCl)CCCl)cc1)NC(=O)C(CC(C)C)NC(C)=O` (stereo unspecified), the T/C runs as follows: (dose: 5.0 mg/kg/injection, schedule: Q04DX003 (ip), vehicle: water) 114 % of control; (dose: 10.0 mg/kg/injection, schedule: Q04DX003 (ip), vehicle: water) 114 % of control; (dose: 40.0 mg/kg/injection, schedule: Q04DX003 (ip), vehicle: water) 121 % of control.

As for `COc1ccc(C2=C/C(=C3\C(=O)Oc4ccccc4C3=O)SS2)cc1`, the T/C was 90 % of control under setting [3], 92 % of control under setting [4] and 90 % of control under setting [5].

With `N#CC1=C(N)NC(=O)C(C(N)=O)C1c1ccccc1Cl` (stereo unspecified), the T/C is 89 % of control (dose: 50.0 mg/kg/injection, schedule: Q01DX005 (ip), vehicle: saline with Tween-80); 92 % of control (dose: 100.0 mg/kg/injection, schedule: Q01DX005 (ip), vehicle: saline with Tween-80); 92 % of control (dose: 200.0 mg/kg/injection, schedule: Q01DX005 (ip), vehicle: saline with Tween-80).

With `CCN(CC)CCCC(C)NS(=O)(=O)c1cccc2c(N(C)C)cccc12` (stereo unspecified), the T/C was 97 % of control (dose: 6.25 mg/kg/injection, schedule: Q04DX003 (ip), vehicle: water); 108 % of control (dose: 12.5 mg/kg/injection, schedule: Q04DX003 (ip), vehicle: water); 118 % of control (dose: 25.0 mg/kg/injection, schedule: Q04DX003 (ip), vehicle: water); 118 % of control under setting [1]; 115 % of control under setting [2].

On to `O[C@H](CN1CC1)[C@@H](O)CN1CC1`, for which the T/C (dose: 62.5 micrograms/kg/injection, schedule: Q01DX010 (ip), vehicle: saline) is 235 % of control; the T/C (dose: 125.0 micrograms/kg/injection, schedule: Q01DX010 (ip), vehicle: saline) was 230 % of control and 186 % of control; the T/C (dose: 250.0 micrograms/kg/injection, schedule: Q01DX010 (ip), vehicle: saline) was 227 % of control and 187 % of control; the T/C (dose: 500.0 micrograms/kg/injection, schedule: Q01DX010 (ip), vehicle: saline) was 116 % of control and 122 % of control.

Regarding `COc1cc(/C=N/OCc2cc3c(cc2Cl)OCO3)cc(OC)c1OC`, the T/C (dose: 100.0 mg/kg/injection, schedule: Q04DX003 (ip), vehicle: saline sonified) is 95 % of control; the T/C (dose: 200.0 mg/kg/injection, schedule: Q04DX003 (ip), vehicle: saline sonified) was 90 % of control; the T/C (dose: 400.0 mg/kg/injection, schedule: Q04DX003 (ip), vehicle: saline sonified) is 104 % of control.

As to `C[Si](C)(C)C1CO1` (stereo unspecified), the T/C by setting is: under setting [3], 106 % of control; under setting [4], 106 % of control; under setting [5], 102 % of control.

Turning to `CC(C)n1c(=S)[nH]c2ccccc2c1=O`, the T/C (dose: 100.0 mg/kg/injection, schedule: Q01DX001 (ip), vehicle: Klucel (hydroxypropylcellulose) (HPC)) is 100 % of control; the T/C (dose: 200.0 mg/kg/injection, schedule: Q01DX001 (ip), vehicle: Klucel (hydroxypropylcellulose) (HPC)) is 100 % of control; the T/C (dose: 400.0 mg/kg/injection, schedule: Q01DX001 (ip), vehicle: Klucel (hydroxypropylcellulose) (HPC)) was 100 % of control.

As for `CCOC(=O)NC(C)(C)CN(C(=O)OCC)c1ccccc1`, the T/C is, setting by setting: (dose: 44.0 mg/kg/injection, schedule: Q04DX003 (ip), vehicle: saline with Tween-80) 95 % of control; (dose: 66.0 mg/kg/injection, schedule: Q04DX003 (ip), vehicle: saline with Tween-80) 104 % of control; (dose: 100.0 mg/kg/injection, schedule: Q04DX003 (ip), vehicle: saline with Tween-80) 90 % of control; (dose: 150.0 mg/kg/injection, schedule: Q04DX003 (ip), vehicle: saline with Tween-80) 95 % of control.

On to `CCOCCC(O)CC` (stereo unspecified), for which the T/C is 100 % of control (dose: 178.0 mg/kg/injection, schedule: Q04DX003 (ip), vehicle: saline); 100 % of control (dose: 266.0 mg/kg/injection, schedule: Q04DX003 (ip), vehicle: saline); 100 % of control (dose: 400.0 mg/kg/injection, schedule: Q04DX003 (ip), vehicle: saline).

Regarding `O=[N+]([O-])c1ccc2c(c1)Cc1cc(Br)ccc1-2`, the T/C by setting is: (dose: 100.0 mg/kg/injection, schedule: Q04DX003 (ip), vehicle: Klucel (hydroxypropylcellulose) (HPC)) 100 % of control; (dose: 400.0 mg/kg/injection, schedule: Q04DX003 (ip), vehicle: Klucel (hydroxypropylcellulose) (HPC)) 100 % of control.

In the case of `O=C(O)c1csc(-c2csc(CCNC(=O)C(F)(F)F)n2)n1`, the T/C is, setting by setting: under setting [3], 94 % of control; under setting [4], 93 % of control; under setting [5], 103 % of control.

Take `C#CC1(OCC2CO2)CCCCC1` (stereo unspecified): the T/C (dose: 100.0 mg/kg/injection, schedule: Q01DX009 (ip), vehicle: saline) was 92 % of control; the T/C (dose: 100.0 mg/kg/injection, schedule: Q04DX003 (ip), vehicle: saline) was 110 % of control; the T/C (dose: 200.0 mg/kg/injection, schedule: Q01DX009 (ip), vehicle: saline) is 103 % of control; the T/C (dose: 200.0 mg/kg/injection, schedule: Q04DX003 (ip), vehicle: saline) was 110 % of control; the T/C (dose: 400.0 mg/kg/injection, schedule: Q01DX009 (ip), vehicle: saline) was 92 % of control.

On to `COC1=CCC23C(=O)C=CC(=O)C2(C1)C(=O)c1ccccc1C3=O` (stereo unspecified), for which the T/C runs as follows: (dose: 3.12 mg/kg/injection, schedule: Q04DX003 (ip), vehicle: saline with Tween-80) 105 % of control; (dose: 6.25 mg/kg/injection, schedule: Q04DX003 (ip), vehicle: saline with Tween-80) 113 % of control; (dose: 12.5 mg/kg/injection, schedule: Q04DX003 (ip), vehicle: saline with Tween-80) 113 % of control.
